Data reported in ChEMBL document CHEMBL1201862, “PubChem BioAssay data set” (2004).
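Each compound was tested at five concentrations against cells in 96-well plates for 48 hours. At the GI50, growth is halved.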 Calls of active or inactive are those of the source. Cut-off read from the data, not from the text of the source: active = GI50 up to about 1.1 µM and inactive = higher.

Assays:
Assay in all cases: DTP human tumour cell line panel, 48 h
[1] = test system: SK-MEL-5
[2] = test system: UACC-257
[3] = test system: HCC 2998
[4] = test system: K562
[5] = test system: NCI-H23
[6] = test system: UO-31
[7] = test system: MOLT-4
[8] = test system: LOX IMVI
[9] = test system: SF-268
[10] = test system: MDA-MB-435
[11] = test system: TK-10
[12] = test system: DU-145
[13] = test system: SW-620
[14] = test system: COLO 205
[15] = test system: UACC-62
[16] = test system: SK-MEL-2
[17] = test system: RPMI-8226
[18] = test system: SF-539
[19] = test system: U-251
[20] = test system: HOP-92
[21] = test system: BT-549
[22] = test system: RXF 393
[23] = test system: NCI/ADR-RES
[24] = test system: Malme-3M
[25] = test system: SN12C
[26] = test system: EKVX
[27] = test system: M14
[28] = test system: MDA-N
[29] = test system: OVCAR-8
[30] = test system: OVCAR-5
[31] = test system: HL-60
[32] = test system: NCI-H460
[33] = test system: SF-295
[34] = test system: Hs-578T
[35] = test system: OVCAR-4
[36] = test system: 786-0
[37] = test system: IGROV-1
[38] = test system: SR
[39] = test system: MCF7
[40] = test system: SK-MEL-28
[41] = test system: NCI-H226
[42] = test system: HCT-15
[43] = test system: HCT-116
[44] = test system: ACHN
[45] = test system: PC-3
[46] = test system: KM12
[47] = test system: MDA-MB-231
[48] = test system: A549
[49] = test system: HOP-62
[50] = test system: A498
[51] = test system: OVCAR-3
[52] = test system: HT-29
[53] = test system: NCI-H522
[54] = test system: SNB-19
[55] = test system: CAKI-1

Measured: GI50

C=CC[C@H](O)[C@@](NC(=O)OCc1ccccc1)(Sc1ccc(C)cc1)C(F)(F)F
24.9 µM: [42]
inactive: [1] 26.9 µM | [2] 23.4 µM | [3] > 100 µM | [4] 35 µM | [5] 24.5 µM | [6] 17.9 µM | [7] 20.3 µM | [8] 4.44 µM | [9] 18.1 µM | [10] 24.1 µM | [11] 33.8 µM | [12] 35.7 µM | [13] 32.1 µM | [14] 20.3 µM | [15] 30.7 µM | [16] 26.8 µM | [17] 23.4 µM | [18] 14.6 µM | [19] 14.5 µM | [20] 38.6 µM | [21] 10.9 µM | [22] 23.3 µM | [23] 31.1 µM | [24] 56.8 µM | [25] 17.3 µM | [26] 30.6 µM | [27] 20.7 µM | [28] 19.2 µM | [29] 16.9 µM | [30] 28.3 µM | [31] 11.5 µM | [32] 30.7 µM | [33] 21.9 µM | [34] 24 µM | [35] 28.2 µM | [36] 16.9 µM | [37] 10.1 µM | [38] 20.1 µM | [39] 23.5 µM | [40] 43.7 µM | [41] 16.5 µM | [43] 20.5 µM | [44] > 100 µM | [45] 29.8 µM | [46] 25.8 µM | [47] 24.8 µM | [48] 27.7 µM | [49] 28.9 µM | [50] 65.3 µM | [51] 21.8 µM | [52] 23.9 µM | [53] 15.5 µM | [54] 32.6 µM | [55] 24.7 µM

Cc1nc2sccn2c1C(=O)OCCOCCOCCOCCOC(=O)c1c(C)nc2sccn12
> 100 µM: [42]
inactive: [1] 11.7 µM | [2] 16.5 µM | [3] > 100 µM | [4] 35.5 µM | [5] 19.5 µM | [6] 70.5 µM | [7] 18.2 µM | [8] 57.3 µM | [9] > 100 µM | [10] 45.4 µM | [11] > 100 µM | [12] > 100 µM | [13] > 100 µM | [14] 86.7 µM | [15] 38.6 µM | [16] 76.4 µM | [17] 52.7 µM | [18] 77.4 µM | [19] > 100 µM | [20] > 100 µM | [21] 34.6 µM | [22] > 100 µM | [23] 27.9 µM | [24] > 100 µM | [25] > 100 µM | [26] 32.1 µM | [27] 43.4 µM | [28] 36.1 µM | [29] 39.6 µM | [30] > 100 µM | [31] 15.7 µM | [32] 80.7 µM | [33] 63.4 µM | [34] > 100 µM | [35] 71.8 µM | [36] > 100 µM | [37] > 100 µM | [38] 45.9 µM | [39] 61.5 µM | [40] 90.2 µM | [41] 16 µM | [43] > 100 µM | [44] > 100 µM | [45] 63.2 µM | [46] 49.7 µM | [47] > 100 µM | [48] > 100 µM | [49] > 100 µM | [50] > 100 µM | [51] > 100 µM | [52] > 100 µM | [53] 48.8 µM | [54] > 100 µM | [55] > 100 µM
